The results in this text go back to patent publication US12037583B2, “Compositions and methods for immunooncology” (Novartis AG, priority 2015, dated 2024).

Series [1] relates to CIITA. In words: NGS editing and frameshift edit of CIITA by dgRNA in HEK293 cells expressing Cas9. The series is classed as cell-based, human. As to conditions: HEK293 cells stably expressing Cas9, dgRNA to CIITA; for Avg. % Edit: N = 3; for Avg. % FS: frameshift edit.
Experimental: Editing of CIITA with dgRNAs targeted to the CIITA gene were assayed in HEK293 cells engineered to express Cas9, as described above in Example 1.
Series [2] has as its system CIITA. In words: NGS editing and frameshift edit of CIITA in CD3+ primary human T cells (RNP). The series is classed as cell-based. As to conditions: dgRNA targeting CIITA delivered as RNP to CD3+ T cells.
Text: The frequency of insertions or deletions is indicated (% indels) and the percentage of these edits that result in frameshifting of the coding sequence is shown (% frameshift edits).
PBMC were isolated from human blood (Hemacare) by using centrifugation method using Ficoll. […] These cells were aliquoted and frozen. These frozen cell aliquots were then thawed and activated using CD3/CD28 beads (DynaBeads Invitrogen Cat #111.41D) at bead to cell ratio of 3:1. On day 2 or day 3 after bead activation, 200,000 cells were removed from culture for electroporation. […] Next 1 μL of 100 μM crRNA was added, mixed and incubated for 10 min at 37° C. If more than one RNP was added during the electroporation step, each RNP with a crRNA targeting a different gene was assembled separately using the above method, then combined together with the addition of Cas9 buffer in order to obtain different RNP final concentrations for different conditions. For “triple editing”, i.e. simultaneous addition of 3 RNPs targeting different genes, details of RNP quantities are provided in the figures. The assembled RNPs were then mixed with 200,000 cells in 10 ul of T Buffer (neon transfection system 10 ul Kit). Electroporation was performed by Neon electroporator using Neon® Transfection System 10 μL Kit (MPK1096) at 1600V, 10 ms, 3 pulses. […] To evaluate the editing frequency and sequence changes resulting from gene editing in the above prepared T cells, genomic DNA was isolated and subjected to sequencing. Briefly, frozen cell pellets were thawed and processed using DNeasy Blood & Tissue Kit (Qiagen, 69506) to isolate genomic DNA. Eluted DNA was used to run PCR using Titanium Taq PCR kit (Clontech Laboratories, 639211) and primers in Table 27.
PCR product was purified using QIAquick PCR Purification Kit (Qiagen, 28104). […] PCR amplicons were subjected to standard Nextera NGS library prep (Illumina) and sequenced with paired-end reads on an Illumina MiSeq sequencer.
The test system of series [3] is CD3E. In words: NGS editing and frameshift edit of CD3E by dgRNA in HEK-293(Cas9) cells. The series is classed as cell-based, human. As to conditions: dgRNA to CD3E in HEK-293(Cas9) cells. An excerpt:
Transfection of Cas9GFP-expressing HEK293 cells (HEK-293_Cas9GFP) was used for primary screening of target specific crRNAs. In this example, target specific crRNAs were designed and selected for primary screening using defined criteria including in silico off-target detection, e.g., as described herein. Selected crRNAs were chemically synthesized and delivered in a 96 well format. HEK-293-Cas9GFP cells were transfected with target crRNAs comprising a flagpole region of SEQ ID NO: 6607 in a 1:1 ratio with stock trRNA of SEQ ID NO: 6660. The transfection was mediated using lipofection technology according to manufacturer's protocol (DharmaFECT Duo, GE LifeSciences; or RNAiMax, LifeTechnologies). Transfected cells were lysed 24 h following lipofection and editing (e.g., cleavage) was detected within lysates with the T7E1 assay and/or next generation sequencing (NGS; below).
PCR primers were first designed around the target site, and the genomic area of interest PCR amplified. Additional PCR was performed according to manufacturer's protocols (Illumina) to add the necessary chemistry for sequencing. The amplicons were then sequenced on an Illumina MiSeq instrument. The reads were then aligned to the human reference genome (e.g., hg38) after eliminating those having low quality scores. From the resulting files containing the reads mapped to the reference genome (BAM files), reads which overlap the target region of interest were selected and the number of wild type reads versus the number of reads which contain an insertion or deletion was calculated. The editing percentage was then defined as the total number of reads with insertions or deletions over the total number of reads, including wild type. To determine the pattern of insertions and/or deletions that resulted from the edit, the aligned reads with indels were selected and the number of a reads with a given indel were summed.
dgRNA molecules comprising the indicated targeting domain were chemically synthesized, and editing assessed in HEK-293 cells by NGS as described in Example 1. […] Several gRNA molecules were able to edit more than 50% of the cells, including producing a frameshift mutation in more than 50% of the cells.

Series [4] concerns TRAC. In words: Editing of TRAC by dgRNAs in HEK cells stably expressing Cas9 (NGS). The series is classed as cell-based, human. Conditions: dgRNA delivered to HEK cells stably expressing Cas9, target TRAC, mean of at least 3 experiments.
Text: (§1) FIG. 12: Mean (n≥3) editing of CRISPR systems with dgRNAs as indicated to TRAC in HEK cells (stably expressing Cas9) or primary human CD3+ T cells (delivery of dgRNA:Cas9 RNP by electroporation).
The subject of series [5] is TRAC locus. In words: Genomic editing of the TRAC locus in primary human CD3+ T cells by RNP electroporation (NGS: % indels, % frameshift edits, indel pattern).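 On all read-outs here: total edit is the insertion or deletion frequency at TRAC, and the frameshift value is the share of those indels that shift the coding frame.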 It is filed as cell-based. As to conditions: dgRNA/Cas9 RNP by electroporation, target TRAC; for mean FS edit (%): frameshift edits in primary human CD3+ T cells; for mean total % edit: primary human CD3+ T cells, mean of at least 3 experiments.
Text: as §1
FIG. 33C: Genomic editing of the TRAC locus resulting from human primary T cell electroporation with RNP containing the indicated gRNA targeting the TRAC locus is shown. The frequency of insertions or deletions is indicated (% indels) and the percentage of these edits that result in frameshifting of the coding sequence is shown (% frameshift edits).
Data for each experiment are the average from triplicate PCR products.

As for “CR002992 (guide UGGAAGGUGAUGAAGAGACC; chemistry not given here; listed as Homo sapiens)”, in series [1], the “Avg. % Edit” value is listed as 46.54% and the “Avg. % FS” value is 31.23%. Further, in series [2], the Editing % is given as 16.0% and the “Frameshift Edit %” value is listed as 11.6%.
Regarding “CR002995 (guide GAUAUUGGCAUAAGCCUCCC; chemistry not given here; listed as Homo sapiens)”, in series [1], the “Avg. % Edit” value is reported as 52.74% and the “Avg. % FS” value is 43.64%. Besides, in series [2], the Editing % is reported as 3.1% and the “Frameshift Edit %” value is 2.5%.
In the case of “CR002993: dgRNA targeting domain to CIITA (guide GGAAGGUGAUGAAGAGACCA; chemistry not given here; listed as Homo sapiens)”, in series [1], the “Avg. % Edit” value amounted to 60.16% and the “Avg. % FS” value was found to be 48.86%. For the same substance, in series [2], the Editing % stood at 33.8% and the “Frameshift Edit %” value was found to be 27.2%.
In the case of “CR002230 (guide AGGCCUCUCUACUUCCUGUG; targeting domain within dual guide RNA, chemistry not given here, further chemistry not given here; listed as Homo sapiens)”, in series [3], the “Avg. % Edit (any indel)” value is 20.64% and the “Avg. Frameshift %” value amounted to 20.10%.
With “CR002976 (guide AUAGAAGUGGUAGAGGCACA; chemistry not given here; listed as Homo sapiens)”, in series [1], the “Avg. % Edit” value is listed as 45.36% and the “Avg. % FS” value was determined as 37.66%. In addition, in series [2], the Editing % is reported as 4.0% and the “Frameshift Edit %” value stood at 3.6%.
The corresponding values for “CR003007: dgRNA targeting domain to CIITA (guide AUAGGACCAGAUGAAGUGAU; chemistry not given here; listed as Homo sapiens)” are 43.64%, 32.22%, 31.6% and 28.8%.
The corresponding values for “CR003001 (guide UUCCAGGACUCCCAGCUGGA; chemistry not given here; listed as Homo sapiens)” are 47.64%, 43.30%, 36.3% and 32.0%.
The corresponding values for “CR002980 (guide GGUCCAUCUGGUCAUAGAAG; chemistry not given here; listed as Homo sapiens)” are 50.30%, 42.41%, 6.1% and 3.6%.
Regarding “CCACUUUCAGGAGGAGGAUU (chemistry not given here; listed as Homo sapiens) [CR000986]”, in series [4], the mean % edit is on record as 68.6%. Further, in series [5], the “mean FS edit (%)” value was found to be 14.8% and the “mean total % edit” value was found to be 36.4%.
For “GAGGCUUCUCACCCUGCAGC (chemistry not given here; listed as Homo sapiens) [CR000922]”, the mean % edit in series [4] was 37.8%. Besides, in series [5], the “mean FS edit (%)” value amounted to 5.0% and the “mean total % edit” value was 6.4%.
Turning to “AGAGCAACAGUGCUGUGGCC (chemistry not given here; listed as Homo sapiens) [CR000970]”, the mean % edit in series [4] is reported as 13.4%. Besides, in series [5], the “mean FS edit (%)” value is 9.3% and the “mean total % edit” value is listed as 10.9%.
Take “CR002978 (guide UCUGGUCAUAGAAGUGGUAG; chemistry not given here; listed as Homo sapiens)”: in series [1], the “Avg. % Edit” value came to 38.34% and the “Avg. % FS” value turned out to be 34.11%. In series [2], the Editing % was 4.7% and the “Frameshift Edit %” value was 2.7%.
The substance “UCAAGGCCCCUCACCUCAGC (chemistry not given here; listed as Homo sapiens) [CR000995]” returned a mean % edit in series [4] of 23.2%. In series [5], the “mean FS edit (%)” value is reported as 2.5% and the “mean total % edit” value came to 1.9%.
The like results for “GGUGUCAUAUGUGCAGCUCA (chemistry not given here; listed as Homo sapiens) [CR000938]” were, in that order, 55.0%, 12.5% and 13.9%.
The like results for “AGAGUGAUUAUUAUUUAUUC (chemistry not given here; listed as Homo sapiens) [CR000941]” were, in that order, 33.4%, 7.6% and 9.6%.
As to “CR002994 (guide AGGUGAUGAAGAGACCAGGG; chemistry not given here; listed as Homo sapiens)”, in series [1], the “Avg. % Edit” value came out at 42.35% and the “Avg. % FS” value is given as 31.32%. In series [2], the Editing % is listed as 22.0% and the “Frameshift Edit %” value worked out at 18.1%.
In turn, “CUGACAGGUUUUGAAAGUUU (chemistry not given here; listed as Homo sapiens) [CR000981]” displayed a mean % edit in series [4] of 70.0%. Also, in series [5], the “mean FS edit (%)” value amounted to 25.1% and the “mean total % edit” value is 37.6%.
“CR003013 (guide UGCCGGAAGCUCCUCUGGGA; chemistry not given here; listed as Homo sapiens)”: in series [1], the “Avg. % Edit” value was found to be 37.75% and the “Avg. % FS” value is given as 29.94%. In addition, in series [2], the Editing % is 11.5% and the “Frameshift Edit %” value is on record as 9.0%.
As for “CR002231 (guide GGCCUCUCUACUUCCUGUGU; targeting domain within dual guide RNA, chemistry not given here, further chemistry not given here; listed as Homo sapiens)”, in series [3], the “Avg. % Edit (any indel)” value turned out to be 13.83% and the “Avg. Frameshift %” value is recorded as 12.37%.
In turn, “AUCCUCCUCCUGAAAGUGGC (chemistry not given here; listed as Homo sapiens) [CR000987]” yielded a mean % edit in series [4] of 39.6%. In series [5], the “mean FS edit (%)” value is on record as 18.2% and the “mean total % edit” value was found to be 20.6%.
The corresponding values for “UCUGUUGCUUAUAAGCUUCU (chemistry not given here; listed as Homo sapiens) [CR000946]” are 65.9%, 9.2% and 9.8%.
The corresponding values for “ACCAACUCACACAUACAGCC (chemistry not given here; listed as Homo sapiens) [CR000949]” are 30.2%, 2.5% and 2.5%.
In series [4], “UUUCAAAACCUGUCAGUGAU (chemistry not given here; listed as Homo sapiens) [CR000982]” gave a mean % edit of 48.1%. Besides, in series [5], the “mean FS edit (%)” value was determined as 23.2% and the “mean total % edit” value is on record as 28.5%.
